The target in the assay is T1, soluble guanylate cyclase (human GUCYA3/GUCYB3) overexpressed in CHO cells (Homo sapiens, UniProt Q02108+Q02153).
T1 construct: expressed in transfected cells
T1 sequence (Q02108 1-690 partner): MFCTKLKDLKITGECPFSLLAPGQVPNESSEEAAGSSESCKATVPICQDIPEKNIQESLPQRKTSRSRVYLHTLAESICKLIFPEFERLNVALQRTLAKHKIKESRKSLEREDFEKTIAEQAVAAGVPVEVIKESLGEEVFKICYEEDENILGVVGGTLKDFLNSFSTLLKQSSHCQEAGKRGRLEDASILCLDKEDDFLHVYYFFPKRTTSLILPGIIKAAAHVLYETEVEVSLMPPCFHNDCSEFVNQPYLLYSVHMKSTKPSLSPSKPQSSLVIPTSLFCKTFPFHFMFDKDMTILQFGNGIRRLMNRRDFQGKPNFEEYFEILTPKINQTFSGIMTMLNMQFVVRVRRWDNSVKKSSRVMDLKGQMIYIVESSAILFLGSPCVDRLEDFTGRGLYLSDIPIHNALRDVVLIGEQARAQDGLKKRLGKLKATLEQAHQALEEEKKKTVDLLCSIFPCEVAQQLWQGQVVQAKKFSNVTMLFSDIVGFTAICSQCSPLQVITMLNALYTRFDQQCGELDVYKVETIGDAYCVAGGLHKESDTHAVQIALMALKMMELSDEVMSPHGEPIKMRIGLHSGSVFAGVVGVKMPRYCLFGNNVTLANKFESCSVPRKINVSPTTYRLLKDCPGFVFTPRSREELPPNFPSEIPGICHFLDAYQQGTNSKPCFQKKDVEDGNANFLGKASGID
T1 sequence (Q02153 1-619): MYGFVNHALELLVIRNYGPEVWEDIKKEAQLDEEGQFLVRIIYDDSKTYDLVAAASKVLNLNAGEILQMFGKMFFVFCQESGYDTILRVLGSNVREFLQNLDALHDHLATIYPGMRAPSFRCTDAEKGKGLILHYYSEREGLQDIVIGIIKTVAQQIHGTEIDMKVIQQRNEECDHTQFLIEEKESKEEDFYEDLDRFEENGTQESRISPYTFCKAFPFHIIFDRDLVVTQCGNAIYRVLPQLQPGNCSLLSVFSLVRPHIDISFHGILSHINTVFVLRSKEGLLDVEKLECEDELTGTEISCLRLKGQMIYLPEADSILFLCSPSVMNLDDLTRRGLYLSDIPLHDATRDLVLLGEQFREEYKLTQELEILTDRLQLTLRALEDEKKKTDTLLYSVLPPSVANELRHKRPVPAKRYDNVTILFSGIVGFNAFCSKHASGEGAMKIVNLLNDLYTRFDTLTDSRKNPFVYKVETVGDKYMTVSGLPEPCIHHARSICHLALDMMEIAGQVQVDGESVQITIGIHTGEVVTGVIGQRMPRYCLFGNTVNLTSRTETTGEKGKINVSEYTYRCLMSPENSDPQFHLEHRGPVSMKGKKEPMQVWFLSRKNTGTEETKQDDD
Put plainly: CHO cellular assay (cGMP production, HTRF). The class given is cell-based. The settings on record: CHO K1 clone 8E10 overexpressing human sGC, Cisbio HTRF, 1 h room temperature, 1 mM IBMX, 20 uM ODQ, minimum quantification limit 0.5 nM. The gist of the method: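 Stable CHO K1 clone expressing human GUCYA3/GUCYB3. Compounds applied 1 h at room temperature in HBSS, 0.1% BSA, 1 mM IBMX, 20 uM ODQ, 0.5% DMSO. cGMP measured by HTRF and interpolated from a standard curve; EC50 from 4-parameter sigmoidal fit.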
Background: TR-FRET usually uses a lanthanide donor and a delayed reading to cut background.

Turning to `CCc1csc(-c2cccc(-n3ncc(C(=O)O)c3C(F)(F)F)n2)c1COc1ccc(C2CCN(CC(F)(F)F)CC2)cc1C` [Example 18-6, 1-(6-(4-Ethyl-3-((2-methyl-4-(1-(2,2,2-trifluoroethyl)piperidin-4-yl)phenoxy)methyl)thiophen-2-yl)pyridin-2-yl)-5-(trifluoromethyl)-1H-pyrazole-4-carboxylic acid], the EC50 (in general, the concentration at which the effect is half-maximal) was 0.018 µM.

Molecule `Cc1cc(C2CCN(C(=O)C3CC3)CC2)ccc1NCc1c(C)csc1-c1cccc(-n2ncc(C(=O)O)c2C(F)(F)F)n1` [Example 19, 1-(6-(3-(((4-(1-(Cyclopropanecarbonyl)piperidin-4-yl)-2-methylphenyl)amino)methyl)-4-methylthiophen-2-yl)pyridin-2-yl)-5-(trifluoromethyl)-1H-pyrazole-4-carboxylic acid] came in with an EC50 of 0.001 µM.

`Cc1csc(-c2cccc(-n3ncc(C(=O)O)c3C(F)(F)F)n2)c1CNc1ccc(C2CCN(C(=O)C3CC3)CC2)cc1` [Example 20-1, 1-(6-(3-(((4-(1-(Cyclopropanecarbonyl)piperidin-4-yl)phenyl)amino)methyl)-4-methylthiophen-2-yl)pyridin-2-yl)-5-(trifluoromethyl)-1H-pyrazole-4-carboxylic acid] yielded an EC50 of 0.012 µM.

With `CCc1c(C(=O)O)cnn1-c1cccc(-c2sc(C)c(C)c2CNc2ccc(C3CCN(C(=O)C4CC4)CC3)cc2C)n1` [Example 20-2, 1-(6-(3-(((4-(1-(Cyclopropanecarbonyl)piperidin-4-yl)-2-methylphenyl)amino)methyl)-4,5-dimethylthiophen-2-yl)pyridin-2-yl)-5-ethyl-1H-pyrazole-4-carboxylic acid], the EC50 was ≤ 0.0005 µM.

`Cc1cc(C2CCN(CC(F)(F)F)CC2)ccc1NCc1c(C)csc1-c1cccc(-n2ncc(C(=O)O)c2C(F)(F)F)n1` [Example 20-3, 1-(6-(4-Methy1-3-(((2-methy1-4-(1-(2,2,2-trifluoroethyl)piperidin-4-yl)phenyl)amino)methyl)thiophen-2-yl)pyridin-2-yl)-5-(trifluoromethyl)-1H-pyrazole-4-carboxylic acid] displayed an EC50 of 0.039 µM.

`CCC(=O)N1CCC(c2ccc(OCc3cc(C)sc3-c3cccc(-n4ncc(C(=O)O)c4C(F)(F)F)n3)c(C)c2)CC1` [Example 21, 1-(6-(5-Methyl-3-((2-methyl-4-(1-propionylpiperidin-4-yl)phenoxy)methyl)thiophen-2-yl)pyridin-2-yl)-5-(trifluoromethyl)-1H-pyrazole-4-carboxylic acid]: the EC50 is ≤ 0.0005 µM.

For the molecule `CCc1cc(COc2ccc(C3CCN(C(=O)C4CC4)CC3)cc2C)c(-c2cccc(-n3ncc(C(=O)O)c3C(F)(F)F)n2)s1` [Example 22-1, 1-(6-(3-((4-(1-(Cyclopropanecarbonyl)piperidin-4-yl)-2-methylphenoxy)methyl)-5-ethylthiophen-2-yl)pyridin-2-yl)-5-(trifluoromethyl)-1H-pyrazole-4-carboxylic acid], the midpoint of the response, the EC50, lay at 0.002 µM.

Take `O=C(O)c1cnn(-c2cccc(-c3sccc3COc3ccc4c(c3)CCN(Cc3ccccn3)C4)n2)c1C(F)(F)F` [Example 23, 1-(6-(3-(((2-(Pyridin-2-ylmethyl)-1,2,3,4-tetrahydroisoquinolin-6-yl)oxy)methyl)thiophen-2-yl)pyridin-2-yl)-5-(trifluoromethyl)-1H-pyrazole-4-carboxylic acid]: the midpoint of the response, the EC50, lay at 0.038 µM.

For `CCc1cc(NCc2cc(C)sc2-c2cccc(-n3ncc(C(=O)O)c3C(F)(F)F)n2)ccc1C1CCN(C(=O)C2CC2)CC1` [Example 24, 1-(6-(3-(((4-(1-(Cyclopropanecarbonyl)piperidin-4-yl)-3-ethylphenyl)amino)methyl)-5-methylthiophen-2-yl)pyridin-2-yl)-5-(trifluoromethyl)-1H-pyrazole-4-carboxylic acid], a half-maximal response (EC50) required 0.006 µM.

With `Cc1cc(CCc2ccc(C3CCN(C(=O)C4CC4)CC3)cc2C)c(-c2cccc(-n3ncc(C(=O)O)c3C(F)(F)F)n2)s1` [Example 25, 1-(6-(3-(4-(1-(Cyclopropanecarbonyl)piperidin-4-yl)-2-methylphenethyl)-5-methylthiophen-2-yl)pyridin-2-yl)-5-(trifluoromethyl)-1H-pyrazole-4-carboxylic acid], the EC50 was ≤ 0.0005 µM.

Turning to `Cc1cc(C2CCN(C(=O)C3CC3)CC2)ccc1CCc1ccsc1-c1cccc(-n2ncc(C(=O)O)c2C(F)(F)F)n1` [Example 26, 1-(6-(3-(4-(1-(Cyclopropanecarbonyl)piperidin-4-yl)-2-methylphenethyl)thiophen-2-yl)pyridin-2-yl)-5-(trifluoromethyl)-1H-pyrazole-4-carboxylic acid], the EC50 is ≤ 0.0005 µM.

Regarding `O=C(O)c1cnn(-c2cccc(-c3sccc3CCc3ccc(C4CCN(C(=O)C5CC5)CC4)cc3)n2)c1C(F)(F)F` [Example 27, 1-(6-(3-(4-(1-(Cyclopropanecarbonyl)piperidin-4-yl)phenethyl)thiophen-2-yl)pyridin-2-yl)-5-(trifluoromethyl)-1H-pyrazole-4-carboxylic acid], the EC50 was ≤ 0.0005 µM.

`O=C(O)c1cnn(-c2cccc(-c3sccc3CNc3ccc(C4CCN(C(=O)C5CC5)CC4)cc3)n2)c1C(F)(F)F` [Example 28, 1-(6-(3-(((4-(1-(Cyclopropanecarbonyl)piperidin-4-yl)phenyl)amino)methyl)thiophen-2-yl)pyridin-2-yl)-5-(trifluoromethyl)-1H-pyrazole-4-carboxylic acid] had an EC50 of 0.0045 µM.

In turn, `Cc1cc(C2CCN(C3COC3)CC2)ccc1OCc1ccsc1-c1cccc(-n2ncc(C(=O)O)c2C(F)(F)F)n1` [Example 29, 1-(6-(3-((2-Methyl-4-(1-(oxetan-3-yl)piperidin-4-yl)phenoxy)methyl)thiophen-2-yl)pyridin-2-yl)-5-(trifluoromethyl)-1H-pyrazole-4-carboxylic acid] registered an EC50 of 0.067 µM.

For `Cc1cc(COc2ccc(C3CCN(C(=O)C4CC4)CC3)c(CO)c2)c(-c2cccc(-n3ncc(C(=O)O)c3C(F)(F)F)n2)s1` [Example 30, 1-(6-(3-((4-(1-(Cyclopropanecarbonyl)piperidin-4-yl)-3-(hydroxymethyl)phenoxy)methyl)-5-methylthiophen-2-yl)pyridin-2-yl)-5-(trifluoromethyl)-1H-pyrazole-4-carboxylic acid], the midpoint of the response, the EC50, lay at 0.061 µM.

`CCC(=O)N1CCC(c2ccc(COc3ccsc3-c3cccc(-n4ncc(C(=O)O)c4C(F)(F)F)n3)cc2)CC1` [Example 31, 1-(6-(3-((4-(1-Propionylpiperidin-4-yl)benzyl)oxy)thiophen-2-yl)pyridin-2-yl)-5-(trifluoromethyl)-1H-pyrazole-4-carboxylic acid]: the EC50 was found to be 0.013 µM.

Consider `Cc1cc(COc2ccc(C3CCN(C(=O)C4CC4)CC3)cc2C(F)(F)F)c(-c2cccc(-n3ncc(C(=O)O)c3C(F)(F)F)n2)s1` [Example 32, 1-(6-(3-((4-(1-(Cyclopropanecarbonyl)piperidin-4-yl)-2-(trifluoromethyl)phenoxy)methyl)-5-methylthiophen-2-yl)pyridin-2-yl)-5-(trifluoromethyl)-1H-pyrazole-4-carboxylic acid], for which the EC50 is ≤ 0.0005 µM.

In turn, `O=C(O)c1cnn(-c2cccc(-c3sccc3COc3ccc(C4CCN(C(=O)C5CC5)CC4)cc3C(F)(F)F)n2)c1C(F)(F)F` [Example 33-1, 1-(6-(3-((4-(1-(Cyclopropanecarbonyl)piperidin-4-yl)-2-(trifluoromethyl)phenoxy)methyl)thiophen-2-yl)pyridin-2-yl)-5-(trifluoromethyl)-1H-pyrazole-4-carboxylic acid] gave an EC50 of 0.023 µM.

Source of the values: US9765067B2, “Thiophen-2-yl-pyridin-2-yl-1H-pyrazole-4-carboxylic acid derivatives and the use thereof as soluble guanylate cyclase activators” (Novartis AG, priority 2014, dated 2017).
